Results taken from paper PMC12750222, “Cytosporone B Affects ATP Production of Trypanosoma cruzi: A Lethal Action Investigation” (ACS Omega, 2025).
“Also recorded” adds a separate entry of the source. Like-named read-outs stand apart in the source and are kept apart here.

Key:
Cytotoxic assay (MTT) = type: cell-based, Murine; settings: mouse, NCTC clone 929 fibroblast cells, NCTC clone 929 cells, highest tested concentration 200 μM
Method: (§1) Murine conjunctive cells (NCTC clone 929, ATCC) and rhesus monkey kidney cells (LLC-MK2, ATCC CCL 7) were maintained in RPMI-1640 supplemented with 10% fetal bovine serum (FBS) at 37 °C in 5% CO2 humidified incubator. Peritoneal macrophages were collected by washing the peritoneal cavity of BALB/c mice with RPMI-1640 medium (Sigma-Aldrich) supplemented with 10% FBS, and were maintained at 37 °C in a 5% CO2 humidified incubator. T. cruzi trypomastigotes (Y strain) were cultivated by continuous in vitro passage in LLC-MK2, in RPMI-1640 supplemented with 2% FBS at 37 °C in 5% CO2 humidified incubator. Antitrypomastigote activity was evaluated in vitro using trypomastigotes obtained from infected LLC-MK2 cell cultures. The motile trypomastigotes, spontaneously released into the supernatant, were collected by centrifugation (2100g for 10 min), washed three times with cold PBS to remove cell debris and culture medium, and finally resuspended in fresh RPMI-1640 medium.
(§2) Cytotoxicity was evaluated in vitro using fibroblast cells (NCTC clone 929) seeded in a 96-well plate (6 × 10^4/well). The compounds were diluted in DMSO (30 mM) and diluted in RPMI-1640 medium without phenol red compounds using serial dilution from 1.56 to–200 μM. The compounds were incubated with the cells for 48 h at 37 °C in 5% CO2 humidified incubator. The MTT assay was used for viability determination. After the final incubation period, 20 μL of MTT (5 mg/mL) was added for 4 h and the plate was kept at 37 °C in 5% CO2 humidified incubator. To solubilize the formazan, 80 μL of SDS (10% v/v) was added and the microplate was incubated for 24 h at 25 °C. The microplate was read at 570 nm in a plate spectrophotometer (Varioskan, Thermo, USA).

[1] = system: T. cruzi trypomastigotes (Y strain); test: Antitrypomastigote assay (resazurin); type: cell-based, Trypanosoma cruzi; settings: 24 h + 24 h resazurin, tested up to 150 μM, NA = no activity, read-out: IC50 (μM) ± SD Trypomastigote
Method: as §1
Antitrypomastigote activity was evaluated in vitro using trypomastigotes obtained from infected LLC-MK2 cell cultures. Briefly, […] (1 × 10^6 cells/well) were incubated with increasing concentrations of the test compounds (up to 150 μM) in RPMI-1640 medium supplemented with 10% fetal bovine serum, at 37 °C in a humidified atmosphere containing 5% CO2 for 24 h. After incubation, resazurin sodium salt (final concentration 44 μM) was added to each well, and the plates were further incubated for an additional 24 h under the same conditions. Resazurin is a redox-sensitive dye that is reduced by metabolically active parasites to the fluorescent compound resorufin, allowing the quantification of viable parasites.
The conversion of resazurin to resorufin was measured spectrophotometrically by reading the absorbance at 570 nm. The percentage of parasite viability was calculated relative to untreated controls. Benznidazole was used as a standard drug, and wells containing only medium served as negative controls.

T. cruzi = system: T. cruzi; design: method as in literature; settings: T. cruzi treated with benznidazole; ref literature; cited from earlier work
[2] = system: T. cruzi intracellular amastigotes; test: Antiamastigote assay in infected peritoneal macrophages (Giemsa, infection index); type: cell-based, Trypanosoma cruzi; settings: for IC50: 48 h, intracellular amastigotes in BALB/c peritoneal macrophages, tested up to 60 μM, NA = no activity, read-out: IC50 (μM) ± SD Amastigote; for SI (selectivity index): ratio between CC50 in NCTC cells and IC50 in intracellular amastigotes
Method: as §1
Macrophages were seeded in 16-well chamber slides (NUNC Thermo Fisher Scientific, USA) and after 24 h infected with trypomastigotes (1:5, host cell/parasite ratio) for 2 h. Subsequently, infected cells were incubated with increasing concentrations of the compounds (up to 60 μM) for 48 h at 37 °C in 5% CO2 humidified incubator. After treatment, the cells were fixed and stained with Giemsa, and the slides were analyzed under a digital light microscope (EVOS M500, Thermo Fisher Scientific, USA). The infection index was determined by counting 200 macrophages and calculating the percentage of infected cells multiplied by the average number of amastigotes per infected macrophage. Benznidazole was used as a standard reference drug.

[3] = system: fibroblast cells (NCTC clone 929); test: Cytotoxic assay (MTT); type: cell-based, Murine; settings: NCTC clone 929 cells, 48 h, highest tested concentration 200 μM
Method: as §1, §2

plants = system: plants; design: method as in literature; settings: ref literature; cited from earlier work
Staphylococcus aureus = system: Staphylococcus aureus; design: method as in literature; settings: ref literature; cited from earlier work
Enterococcus faecalis = system: Enterococcus faecalis; design: method as in literature; settings: ref literature; cited from earlier work
Escherichia coli = system: Escherichia coli; design: method as in literature; settings: ref literature; cited from earlier work
Candida albicans = system: Candida albicans; design: method as in literature; settings: ref literature; cited from earlier work
bacteria = system: bacteria; design: method as in literature; settings: ref literature; cited from earlier work
Nur77 = system: Nur77; design: method as in PMID 18690216; settings: cited from earlier work
T. cruzi trypomastigotes [4] = test: ATP levels (luciferin/luciferase); type: cell-based, Trypanosoma cruzi; settings: 55 μM, 1 and 2 h
Method: Intracellular ATP levels were measured using the ATP Determination Kit (Molecular Probes, Thermo Fisher Scientific, USA), based on the luciferin–luciferase bioluminescence reaction, in which the emitted light intensity is directly proportional to the ATP concentration present in the sample. Trypomastigotes (2 × 10^6/well) were treated with Csn-B (6) (55 μM) for 1 and 2 h. Carbonyl cyanide m-chlorophenyl hydrazone (CCCP) 100 μM was used as a positive control. After treatment, trypomastigotes were lysed using HBSS + Glu with 0.5% Triton X-100 and mixed with a standard reaction buffer (ATP Determination kit, Molecular Probes, USA) containing DTT (1 mM), luciferin (0.5 mM), and firefly luciferase (1.25 μg/mL). ,
(§3) 3 Evaluation of mitochondrial membrane electric potential (ΔΨm) and ATP levels. T. cruzi trypomastigotes were incubated for 1 or 2 h with Cytosporone B (6) (55 μM). (A) ΔΨm was investigated with JC-1 dye by flow cytometry and reported as the ratio between the emission channels BL2/BL1. (B) ATP concentration was measured by luciferin/luciferase luminescent kit in a plate reader luminometer. In both analyses, untreated and treated […] with CCCP were used to achieve minimal and maximal depolarization, respectively. A representative experiment is shown. ***p < 0.005 and **p < 0.05.

T. cruzi trypomastigotes [5] = test: Mitochondrial membrane electric potential (JC-1, flow cytometry); type: cell-based, Trypanosoma cruzi; settings: 55 μM, 1 and 2 h, JC-1, ratio BL2/BL1
Method: Mitochondrial membrane potential (ΔΨm) was evaluated using the JC-1 fluorescent probe, which accumulates in mitochondria in a potential-dependent manner, forming red-fluorescent aggregates in healthy cells with high ΔΨm and remaining as green-fluorescent monomers in cells with depolarized mitochondrial membranes. Trypomastigotes (2 × 10^6/well) were incubated with Csn-B (6) (55 μM) for 1 and 2 h, at 37 °C in HBSS + Glu. Carbonyl cyanide m-chlorophenyl hydrazone (CCCP) 100 μM was used as a positive control. After this period, parasites were washed in HBSS + Glu and resuspended with JC-1 dye (10 μM) in the dark for 10 min at 37 °C. Parasites were analyzed by flow cytometry (Attune NxT Flow Cytometer; Thermo Fisher Scientific, USA). ,
as §3

[6] = system: human lung fibroblast MRC-5 cells; design: method as in PMID 29660469; settings: cited from earlier work
[7] = Trypanosoma cruzi, Peritoneal macrophage, in Mus musculus

For `O=C(Cn1ccnc1[N+](=O)[O-])NCc1ccccc1` [Benznidazole, reference compound], the CC50 at 48 h (Cytotoxic assay (MTT)) is given as 191 ± 13.4 µM, the IC50 ([1]; Trypanosoma cruzi) is given as 17.7 ± 1.9 µM and the mitochondrial membrane potential (T. cruzi) is given as “depolarization”. The respiratory chain (T. cruzi) was “respiratory chain inhibition”, the IC50 [2, 7] was 5 ± 1.5 µM and the “SI (selectivity index)” value [2] was 38.1.

With `COC(=O)Cc1cc(O)cc(O)c1C(=O)CCCCCC(C)=O` [Compound 3, Dothiorelone P] the CC50 [3] was > 200 µM.

In the case of `CCCCCCCC(=O)c1c(O)cc(O)cc1CC(=O)O` [Compound 5, Cytosporone A], the CC50 [3] is given as > 200 µM, the “inhibition for germination and growth of plants” value (plants) is given as “inhibition” and the antimicrobial activity (Staphylococcus aureus) is given as “antimicrobial activity”. The antimicrobial activity (Enterococcus faecalis) was “antimicrobial activity”, the antimicrobial activity (Escherichia coli) was “antimicrobial activity” and the antimicrobial activity (Candida albicans) was “antimicrobial activity”. For the same compound, the IC50 [2] was 29.9 ± 0.5 µM.

In the case of `CCCCCCCC(=O)c1c(O)cc(O)cc1CC(=O)OCC` [Compound 6, Cytosporone B], the CC50 at 48 h (Cytotoxic assay (MTT)) is listed as > 200 µM, the antibacterial activity (bacteria) is listed as “potent antibacterial activity” and the IC50 ([1]; Trypanosoma cruzi) is listed as 36.5 ± 1.9 µM. The antimicrobial activity (Staphylococcus aureus) was “antimicrobial activity”, the “action on Nur77 nuclear receptor” value (Nur77) was “agonist” and the ATP levels (T. cruzi trypomastigotes [4]) was “ATP decrease”. For the same compound, the ATP levels (T. cruzi trypomastigotes [4]; listed as Csn-B) was “decrease in the ATP levels; also recorded: significant decrease in ATP levels; also recorded: significant reduction in intracellular ATP levels”, the antimicrobial activity (Enterococcus faecalis) was “antimicrobial activity” and the antimicrobial activity (Escherichia coli) was “antimicrobial activity”. The “mitochondrial membrane electric potential (ΔΨm)” value (T. cruzi trypomastigotes [5]) was “depolarization of the membrane”, the “mitochondrial membrane electric potential (ΔΨm)” value (T. cruzi trypomastigotes [5]; listed as Csn-B) was “depolarization of the mitochondrial membrane potential; also recorded: significant depolarization” and the antimicrobial activity (Candida albicans) was “antimicrobial activity”. For the same compound, the IC50 [2, 7] was < 10 µM, the IC50 [2] was 9.1 ± 3.2 µM and the “SI (selectivity index)” value [2] was >22.0.

In the case of `C=C1[C@@H](C)[C@H]2[C@H](Cc3ccccc3)NC(=O)[C@]23[C@H](OC(C)=O)/C=C/[C@](C)(O)C[C@@H](C)C/C=C/[C@H]3[C@@H]1O` [Compound 7, Cytochalasin H], the CC50 [3] is reported as > 200 µM and the IC50 [1] is reported as 47.9 ± 6.3 µM.

In the case of Dothiorelone A [Compound 1], the CC50 [3] is reported as > 200 µM.

For Dothiorelone B [Compound 2], the CC50 [3] was > 200 µM.

For Dothiorelone Q [Compound 4], the CC50 [3] is given as > 200 µM, the “inhibition of TFG-β induced activation of MRC-5 cells” value [6] is given as “inhibition” and the IC50 [2] is given as 43 ± 9 µM.
